Source: PubChem BioAssay AID1745844 (Carcinogenic Potency Database (CPDB), 2022)
The source made the active and inactive calls. How the calls were made is not given here.

System: rodent lifetime carcinogenesis bioassay, tumor incidence TD50
Test: chronic cancer bioassays in animals – CPDB, compiled studies (AID 1745844)
Details: inhaled

## C=CC
mouse, strain B6C3F1, females, site: any site (literature study), lesion: several types, types named in the paper, dosed 103 weeks, study length 105 weeks
  carcinogen call: negative (inactive)
mouse, strain B6C3F1, males, site: any site (literature study), lesion: several types, types named in the paper, dosed 103 weeks, study length 105 weeks
  carcinogen call: negative (inactive)
mouse, strain Swiss, females, site: any site (literature study), lesion: malignant tumor, dosed 78 weeks, study length 104 weeks
  TD50: 20100 mg/kg/day (inactive)
mouse, strain Swiss, females, site: any site (literature study), lesion: several types, types named in the paper, dosed 78 weeks, study length 104 weeks
  TD50: 10100 mg/kg/day (inactive)
mouse, strain Swiss, females, site: liver, lesion: hepatoma, dosed 78 weeks, study length 104 weeks
  TD50: 286000 mg/kg/day (inactive)
mouse, strain Swiss, females, site: lung, lesion: adenocarcinoma, dosed 78 weeks, study length 104 weeks
  TD50: 1.2e+06 mg/kg/day (inactive)
mouse, strain Swiss, females, site: lung, lesion: adenoma, dosed 78 weeks, study length 104 weeks
  TD50: 19800 mg/kg/day (inactive)
mouse, strain Swiss, males, site: any site (literature study), lesion: malignant tumor, dosed 78 weeks, study length 104 weeks
  carcinogen call: negative (inactive)
mouse, strain Swiss, males, site: any site (literature study), lesion: several types, types named in the paper, dosed 78 weeks, study length 104 weeks
  carcinogen call: negative (inactive)
mouse, strain Swiss, males, site: liver, lesion: hepatoma, dosed 78 weeks, study length 104 weeks
  carcinogen call: negative (inactive)
mouse, strain Swiss, males, site: lung, lesion: adenocarcinoma, dosed 78 weeks, study length 104 weeks
  carcinogen call: negative (inactive)
mouse, strain Swiss, males, site: lung, lesion: adenoma, dosed 78 weeks, study length 104 weeks
  carcinogen call: negative (inactive)
rat, strain Fischer 344, females, site: any site (literature study), lesion: several types, types named in the paper, dosed 103 weeks, study length 104 weeks
  carcinogen call: negative (inactive)
rat, strain Fischer 344, females, site: liver, lesion: hepatocellular adenoma + hepatocellular carcinoma + neoplastic nodule, dosed 103 weeks, study length 104 weeks
  TD50: 20500 mg/kg/day
rat, strain Fischer 344, males, site: any site (literature study), lesion: several types, types named in the paper, dosed 103 weeks, study length 104 weeks
  TD50: 15500 mg/kg/day (inactive)
rat, strain Fischer 344, males, site: liver, lesion: hepatocellular adenoma + hepatocellular carcinoma + neoplastic nodule, dosed 103 weeks, study length 104 weeks
  TD50: 4610 mg/kg/day
